Non-standard residues stand in square brackets, D forms with d. Residues, ends and D or L forms follow the SMILES beside them. Nle = CCCC[C@H](N)C(=O)O
Key:
CFP-APO = assay: Vif-mediated depletion of CFP-APO with proteasome inhibition (immuno-blot, confocal microscopy); format: cell-based, human; details: for CFP-APO levels in the absence of Vif: 293T cells, pNL-A1Δvif
Method: (§1) 293T cells were maintained in a humidified incubator (5% CO2) at 37° C. in Dulbecco's modified Eagle's medium (DMEM; Invitrogen) supplemented with 10% fetal bovine serum, 100 units/ml penicillin and 100 μg/ml streptomycin (Invitrogen). Qiagen-purified plasmid DNA (Qiagen, Valencia, Calif.) was transfected into 293T cells using Lipofectaminem 2000 lipofection agent (Invitrogen). For Western blot and immunoprecipitation experiments, 293T cells were transfected in either 6 or 12 well plates when the cells were ˜60% confluent. The amount of vector used and the molar ratio of vector for co-transfection experiments are described in the Results and figure legends. When necessary, final DNA amounts were made equal by the addition of pGEM (Promega). For live imaging and immuno-localization, 293T cells were seeded into poly-d-lysine coated 35 mm glass bottom culture dishes and transfected when the cells were ˜50% confluent. For proteasome inhibition studies, culture media containing 100 μM of N-Acetyl-Leu-Leu-Nle-CHO (ALLN, Calbiochem, La Jolla, Calif.) or the equivalent volume of DMSO was added to cells 12 hours prior to harvesting or imaging 36 hours post-transfection.
(§2) The level of Vif-mediated depletion of APOBEC3G was further determined over a broad range of Vif (pNL-A1):APOBEC3G (pCFP-APO) vector ratios ranging from 1:1 to 1:0.0625, where 1 refers to 130 fmoles of vector. The level of depletion was determined by comparing the steady-state levels of CFP-APO when co-expressed with Vif to the equivalent Δvif control (pNL-A1Δvif). […]
To prepare total protein lysates, each well of a 6- or 12-well plate was washed once in phosphate buffered saline (PBS, Invitrogen) and then lysed in either 400 or 200 μl, respectively, of Mammalian Protein Extraction Reagent (M-PER, Pierce, Rockford, Ill.) supplemented with 0.5% (v/v) Triton-X 100 (Pierce), 150 mM NaCl, 5 mM EDTA, and a 1/100 (v/v) dilution of a protease inhibitor cocktail for mammalian tissue for 30 minutes at 4° C. with gentle rotation. […] Protein concentration was determined by Dc protein assay (Bio-Rad, Hercules, Calif.). […]

Vif = assay: Steady-state levels of Vif with proteasome inhibition (immuno-blot); format: cell-based, HIV-1; details: 293T cells, presence or absence of CFP-APO, 100 μM ALLN 12 hours
Method: as §1, with “For proteasome inhibition studies, culture media containing 100 μM of N-Acetyl-Leu-Leu-Nle-CHO (ALLN, Calbiochem, La Jolla, Calif.) or the equivalent volume of DMSO was added to cells 12 hours prior to harvesting or imaging 36 hours post-transfection.” left out
as §2

Question: For `CCCC[C@@H](C=O)NC(=O)[C@H](CC(C)C)NC(=O)[C@H](CC(C)C)NC(C)=O` [ALLN, N-Acetyl-Leu-Leu-Nle-CHO] (Ac-Leu-Leu-[Nle]-aldehyde), which “CFP-APO levels by confocal microscopy” value (CFP-APO; 293T cells expressing Vif, pNL-A1:pCFP-APO 1:0.25, proteasome inhibition) is on record?
Answer: elevated

Question: And the “CFP-APO levels in the absence of Vif” value (CFP-APO; all ratios except 1:0.0625, 100 μM ALLN 12 hours)?
Answer: not significantly affected

Question: And the “CFP-APO levels in the absence of Vif” value (CFP-APO; lowest pCFP-APO input (1:0.0625 ratio), 100 μM ALLN 12 hours)?
Answer: modest reduction in expression

Question: And the “Steady-state levels of Vif” value (Vif)?
Answer: elevated the steady-state levels of Vif

From patent US20050123906A1, “Protein modulation” (priority 2003, published 2005)
